Where a name gives a salt, the structure may show the parent alone.
Experiments:
pJNK in HCT-116 cells = assay: Phospho-JNK (Thr183/Tyr185) Meso Scale ELISA assay, TNFα-stimulated HCT-116 cells; type: cell-based; conditions: Homo sapiens, read-out: mean HCT-116 pJNK ELISA IC50 (Col. B)
Description: Detailed below are ELISA assays for pJNK and p38, and a TAK1 biochemical assay. […] In Table 1, Col.
Phospho-JNK (Thr183/Tyr185) Meso Scale ELISA Assay
• 1. Plate HCT-116 cells at 25,000 per well in 100 uL in 96 well clear dishes in normal growth medium. Day 2: • 1. Aspirate medium and replace with 90 μl reduced serum growth medium (1% FCS), incubate for 2 hours at 37° C. • 2. Make drugs at 10× in reduced serum medium and add 10 uL per well. • 3. Incubate at 37° C. for 4 hrs. • 4. Bring capture plates to room temperature. • 5. Block with 150 μl Blocking Solution (provided with kit) (600 mg Blocker A into 20 mL 1× Wash Buffer per plate) at room temperature with shaking. • 6. Wash plates 4× with 200 μl 1× wash buffer (10× provided with kit) before transferring lysates. • 7. Dilute TNFα to […] in reduced serum medium (this makes a 10× working stock). • 8. Add 10 μl TNFα to all wells except negative control wells, final concentration is 10 ng/mL. • 9. Incubate at 37° C. for 10 minutes. • 10. Remove medium by flicking into sink • 11. Wash cells with 100 uL ice cold PBS. • 12. Remove PBS by flicking into sink and patting on paper towels. • 13. Lyse cells in 50 μl ice cold 1× Complete Lysis Buffer plus Phosphatase and Protease inhibitors (all provided with kit) (10 mL Tris Lysis Buffer+200 μl Protease inhibitor solution+100 μl Phosphatase inhibitor I+100 μl Phosphatase inhibitor II). • 14. Incubate with shaking at 4° C. for 30 minutes. • 15. Transfer 45 μl to capture plate, cover with adhesive cover, and incubate at 4° C. over night with shaking. • Day 3: • 1. Wash plates 4× with 200 μl 1× wash buffer (10× provided with kit). • 2. […] Incubate at room temperature with shaking for 1 hour. • 4. Wash 4× with 200 μl 1× Wash Buffer. • 5. […] Read on Sector Imager. Phospho-p38 Meso Scale ELISA Assay Day 1: • 1. Plate HCT-116 cells at 25,000 per well in 100 uL in 96 well clear dishes in normal growth medium. zday 2: • 1. Aspirate medium and replace with 90 μl reduced serum growth medium (1% FCS), incubate for 2 hours at 37° C. • 2. Make drugs at 10× in reduced serum medium and add 10 uL per well. • 3. Incubate at 37° C. for 4 hrs. • 4. Bring capture plates to room temperature. • 5. Block with 150 μl Blocking Solution (provided with kit) (600 mg Blocker A into 20 mL 1× Wash Buffer per plate) at room temperature with shaking. • 6. Wash plates 4× with 200 μl 1× wash buffer (10× provided with kit) before transferring lysates. • 7. Dilute TNFα to […] in reduced serum medium (this makes a 10× working stock). • 8. Add 10 μl TNFα to all wells except negative control wells, final concentration is 10 ng/mL. • 9. Incubate at 37° C. for 10 minutes. • 10. Remove medium by flicking into sink • 11. Wash cells with 100 uL ice cold PBS. • 12. Remove PBS by flicking into sink and patting on paper towels. • 13. Lyse cells in 50 μl ice cold 1× Complete Lysis Buffer plus phosphatase and protease inhibitors (all provided with kit) (10 mL Tris Lysis Buffer+200 μl Protease inhibitor solution+100 μl Phosphatase inhibitor I+100 μl Phosphatase inhibitor II). • 14. Incubate with shaking at 4° C. for 30 minutes. • 15. Dilute lysates before transferring to capture plate with 100 μl Complete p38 Lysate • Dilution Buffer (provided with kit) (10 mL of Diluent 20±200 μl Protease inhibitor solution+100 μl Phosphatase inhibitor I+100 μl Phosphatase inhibitor II). • 16. Transfer 50 μl of diluted lysates to capture plate, cover with adhesive cover, and incubate at 4° C. over night with shaking. Day 3: • 1. Wash plates 4× with 200 μl 1× wash buffer (10× provided with kit). • 2. […] Incubate at room temperature with shaking for 1 hour. • 4. Wash 4× with 200 μl 1× Wash Buffer. • 5. […] Read on Sector Imager. TAK1 Biochemical Assay

TAK1-TAB1 fusion protein = target: T1, TAK1-TAB1 fusion protein (Homo sapiens, UniProt O43318); assay: TAK1 biochemical assay (AlphaScreen, GST-MAP2K7 substrate); conditions: TAK1-TAB1 fusion protein, GST-MAP2K7 substrate; read-out: mean TAK1 IC50 (Col. A)
T1 construct: purchased Carna
T1 sequence (O43318 with tags, fused parts or gaps limits assumed): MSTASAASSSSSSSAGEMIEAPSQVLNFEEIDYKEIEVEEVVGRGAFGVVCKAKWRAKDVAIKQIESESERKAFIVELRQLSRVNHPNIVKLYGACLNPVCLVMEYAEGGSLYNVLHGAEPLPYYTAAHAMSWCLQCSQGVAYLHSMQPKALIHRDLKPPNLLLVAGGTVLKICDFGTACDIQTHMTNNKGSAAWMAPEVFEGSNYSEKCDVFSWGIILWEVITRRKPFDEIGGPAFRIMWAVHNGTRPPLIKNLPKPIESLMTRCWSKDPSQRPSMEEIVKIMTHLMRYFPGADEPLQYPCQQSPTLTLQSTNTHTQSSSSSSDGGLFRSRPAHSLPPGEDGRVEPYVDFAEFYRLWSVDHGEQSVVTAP

Row | IC50 (pJNK in HCT-116 cells) [nM] | IC50 (TAK1-TAB1 fusion protein) [nM] | SMILES
1 | < 100 | < 100 | CCNc1nc2cccc(-c3cc4c(-c5cnn(C6CCN(C(C)=O)CC6)c5)cnc(N)c4o3)c2s1 [Example 354, 1-[4-(4-{7-amino-2-[2-(ethylamino)-1,3-benzothiazol-7-yl]furo[2,3-d]pyridin-4-yl}-1H-pyrazol-1-yl)piperidin-1-yl]ethanone trifluoroacetate]
2 | 100 to 1000 | 100 to 1000 | Nc1ncc(-c2cnn([C@H]3CC[C@H](O)CC3)c2)c2cc(-c3ccccc3)oc12 [Example 368, trans-4-[4-(7-amino-2-phenylfuro[2,3-c]pyridin-4-yl)-1H-pyrazol-1-yl]cyclohexanol]
3 | 100 to 1000 | 100 to 1000 | CC(=O)N1CCC(n2cc(-c3cnc(N)c4oc(-c5ccc(F)c6cnsc56)cc34)cn2)CC1 [Example 223, 1-(4-{4-[7-amino-2-(4-fluoro-1,2-benzothiazol-7-yl)furo[2,3-c]pyridin-4-yl]-1H-pyrazol-1-yl}piperidin-1-yl)ethanone diformate salt]
4 | 100 to 1000 | < 100 | Nc1ncc(-c2cnn(C3CCN(C(=O)CCN4CCCCC4)CC3)c2)c2cc(-c3csc4cnccc34)oc12 [Example 332, 1-{4-[4-(7-amino-2-thieno[2,3-c]pyridin-3-yl-furo[2,3-c]pyridin-4-yl)-pyrazol-1-yl]-piperidin-1-yl}-3-piperidin-1-yl-propan-1-one]
5 | 100 to 1000 | 1000 to 10000 | N#Cc1ccc2cnsc2c1-c1cc2c(-c3cnn([C@H]4CC[C@H](O)CC4)c3)cnc(N)c2o1 [Example 372, 7-{7-amino-4-[1-(trans-4-hydroxycyclohexyl)-1H-pyrazol-4-yl]furo[2,3-c]pyridin-2-yl}-1,2-benzothiazole-6-carbonitrile.diformate]
6 | < 100 | < 100 | Nc1ncc(-c2cnn([C@H]3CC[C@H](O)CC3)c2)c2cc(-c3cccc4cnncc34)oc12 [Example 366, trans-4-{4-[7-amino-2-(phthalazin-5-yl)furo[2,3-c]pyridin-4-yl]-1H-pyrazol-1-yl}cyclohexanol]
7 | < 100 | 100 to 1000 | N#Cc1sc2cnccc2c1-c1cc2c(-c3cnn([C@H]4CC[C@H](O)CC4)c3)cnc(N)c2o1 [Example 270, 3-{7-amino-4-[1-(trans-4-hydroxycyclohexyl)-1H-pyrazol-4-yl]furo[2,3-c]pyridin-2-yl}thieno[2,3-c]pyridine-2-carbonitrile trifluoroacetate]
8 | 100 to 1000 | < 100 | Nc1ncc(-c2cnn([C@H]3CC[C@H](O)C3)c2)c2cc(-c3csc4cnccc34)oc12 [Example 307, (1S,3S)-3-[4-(7-amino-2-thieno[2,3-c]pyridin-3-yl-furo[2,3-c]pyridin-4-yl)-pyrazol-1-yl]-cyclopentanol]
9 | < 100 | < 100 | [2H]C([2H])([2H])Nc1ncc(-c2cnn([C@H]3CC[C@H](O)CC3)c2)c2cc(-c3cccc4nnsc34)oc12 [Example 361, trans-4-(4-{2-(1,2,3-benzothiadiazol-7-yl)-7-[(^2H3)methylamino]furo[2,3-c]pyridin-4-yl}-1H-pyrazol-1-yl)cyclohexanol]
10 | < 100 | < 100 | CC(=O)N1CCC(n2cc(-c3cnc(N)c4oc(-c5csc6cnc(F)cc56)cc34)cn2)CC1 [Example 248, 1-(4-{4-[7-amino-2-(5-fluorothieno[2,3-c]pyridin-3-yl)furo[2,3-c]pyridin-4-yl]-1H-pyrazol-1-yl}piperidin-1-yl)ethanone bis(trifluoroacetate)]
11 | < 100 | < 100 | CCNc1nc2cccc(-c3cc4c(-c5cnn([C@H]6CC[C@H](O)CC6)c5)cnc(N)c4o3)c2s1 [Example 355, trans-4-(4-{7-amino-2-[2-(ethylamino)-1,3-benzothiazol-7-yl]furo[2,3-c]pyridin-4-yl}-1H-pyrazol-1-yl)cyclohexanol Trifluoroacetate (Salt)]
12 | 1000 to 10000 | 100 to 1000 | CN(C)C(=O)CCn1cc(-c2cnc(N)c3oc(-c4csc5cnccc45)cc23)cn1 [Example 346, 3-[4-(7-amino-2-thieno[2,3-c]pyridin-3-yl-furo[2,3-c]pyridin-4-yl)-pyrazol-1-yl]-N,N-dimethyl-propionamide]
13 | 100 to 1000 | < 100 | Nc1ncc(-c2cnn([C@@H]3CCC[C@@H](O)C3)c2)c2cc(-c3cccc4cnsc34)oc12 (relative stereo) [Example 313, trans-3-[4-(7-amino-2-benzo[d]isothiazol-7-yl-furo[2,3-c]pyridin-4-yl)-pyrazol-1-yl]-cyclohexanol]
14 | 1000 to 10000 | 100 to 1000 | Nc1ncc(-c2cnn([C@H]3CC[C@H](O)CC3)c2)c2cc(-c3csc4cnc(O)cc34)oc12 [Example 360, 3-{7-Amino-4-[1-(trans-4-hydroxycyclohexyl)-1H-pyrazol-4-yl]furo[2,3-c]pyridin-2-yl}thieno[2,3-c]pyridin-5-ol]
15 | 100 to 1000 | < 100 | CC(=O)N1CCC(n2cc(-c3cnc(N)c4oc(-c5c(F)ccc6nnsc56)cc34)cn2)CC1 [Example 273, 1-(4-{4-[7-amino-2-(6-fluoro-1,2,3-benzothiadiazol-7-yl)furo[2,3-c]pyridin-4-yl]-1H-pyrazol-1-yl}piperidin-1-yl)ethanone]

Row | SMILES | IC50 (pJNK in HCT-116 cells) [nM] | IC50 (TAK1-TAB1 fusion protein) [nM]
16 | Cc1ncc(-c2cnc(N)c3oc(-c4csc5cnccc45)cc23)s1 [Example 388, 4-(2-methyl-1,3-thiazol-5-yl)-2-(thieno[2,3-c]pyridin-3-yl)furo[2,3-c]pyridin-7-amine trifluoroacetate] | 100 to 1000 | 100 to 1000
17 | CNc1ncc(-c2cnn([C@H]3CC[C@H](O)CC3)c2)c2cc(-c3cccc4nnsc34)oc12 [Example 284, trans-4-{4-{2-[2-(1,2,3-benzothiadiazol-7-yl)-7-(methylamino)furo[2,3-c]pyridin-4-yl]-1H-pyrazol-1-yl}cyclohexanol formate salt] | < 100 | < 100
18 | Nc1ncc(-c2cnn([C@@H]3C[C@H]4CC[C@@H](C3)N4)c2)c2cc(-c3csc4cnccc34)oc12 [Example 320, 4-{1-[(3-exo)-8-azabicyclo[3.2.1]oct-3-yl]-1H-pyrazol-4-yl}-2-(thieno[2,3-c]pyridin-3-yl)furo[2,3-c]pyridin-7-amine] | 100 to 1000 | < 100
19 | Nc1ncc(-c2cnn([C@@H]3C[C@H]4CC[C@@H](C3)N4)c2)c2cc(-c3cccc4cnsc34)oc12 [Example 321, 4-{1-[(3-exo)-8-azabicyclo[3.2.1]oct-3-yl]-1H-pyrazol-4-yl}-2-(1,2-benzisothiazol-7-yl)furo[2,3-c]pyridin-7-amine] | 100 to 1000 | < 100
